Data taken from patent US10206937B2, “Boronic acid derivatives and therapeutic uses thereof” (Qpex Biopharma, Inc., priority 2014, dated 2019).

How the values were obtained:
NDM-1 [1] = target: T1, NDM-1 (Klebsiella pneumoniae, UniProt C7C422); assay: biochemical; settings: cleavage of imipenem (100 uM) by NDM-1; read-out: Ki, Imipenem
VIM-1 = target: T2, VIM-1 (Pseudomonas aeruginosa, UniProt A0A0F7KYQ8); assay: biochemical; settings: cleavage of nitrocefin (200 uM) by VIM-1 supernatant
T2 construct: made in house; host or cells: ECM6711 strain carrying pUCP24-VIM-1 plasmid; culture supernatant used unpurified

NDM-1 [2] = target: T1, NDM-1; assay: Inhibition of purified class B carbapenemase NDM-1 (Ki, imipenem substrate); format: biochemical; settings: NDM-1, substrate imipenem; read-out: Ki NDM-1, Imipenem
[3] = target: purified class A, C and D enzymes (Enterobacter cloacae, UniProt P05364); format: biochemical; settings: purified P99/AmpC of ECL; nitrocefin reporter substrate
[4] = target: purified class A, C and D enzymes (Escherichia coli, UniProt Q9L5C7); format: biochemical; settings: purified CTX-M-14; nitrocefin reporter substrate
[5] = target: T3, purified class A, C and D enzymes (UniProt P0AD64, L31Q/G234S/E235K, species not given); format: biochemical; settings: read-out: Ki (SHV-12, NCF); purified SHV-12; nitrocefin reporter substrate
T3 construct: Ki (SHV-12, NCF); other: purified SHV-12; nitrocefin reporter substrate
T3 sequence (P0AD64 1-286 L31Q/G234S/E235K): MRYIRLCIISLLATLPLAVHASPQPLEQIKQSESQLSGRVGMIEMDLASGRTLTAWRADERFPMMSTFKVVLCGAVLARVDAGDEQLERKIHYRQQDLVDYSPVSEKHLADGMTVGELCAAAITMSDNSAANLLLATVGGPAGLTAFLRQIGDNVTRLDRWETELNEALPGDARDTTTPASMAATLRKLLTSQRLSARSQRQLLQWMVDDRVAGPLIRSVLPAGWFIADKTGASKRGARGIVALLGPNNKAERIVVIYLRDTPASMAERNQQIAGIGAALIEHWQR

[6] = target: T4, purified class A, C and D enzymes (UniProt Q6XEC0); format: biochemical; settings: read-out: Ki (OXA-48, NCF); purified OXA-48; nitrocefin reporter substrate
T4 construct: rows headed: Ki (OXA-48, NCF); other: purified OXA-48; nitrocefin reporter substrate

[7] = target: T5, purified class A, C and D enzymes (UniProt Q9F663); format: biochemical; settings: read-out: Ki (KPC-2, NCF); purified KPC-2; nitrocefin reporter substrate
T5 construct: rows headed: Ki (KPC-2, NCF); other: purified KPC-2; nitrocefin reporter substrate

Sequence of purified class A, C and D enzymes (Enterobacter cloacae, UniProt P05364) (P05364 21-381): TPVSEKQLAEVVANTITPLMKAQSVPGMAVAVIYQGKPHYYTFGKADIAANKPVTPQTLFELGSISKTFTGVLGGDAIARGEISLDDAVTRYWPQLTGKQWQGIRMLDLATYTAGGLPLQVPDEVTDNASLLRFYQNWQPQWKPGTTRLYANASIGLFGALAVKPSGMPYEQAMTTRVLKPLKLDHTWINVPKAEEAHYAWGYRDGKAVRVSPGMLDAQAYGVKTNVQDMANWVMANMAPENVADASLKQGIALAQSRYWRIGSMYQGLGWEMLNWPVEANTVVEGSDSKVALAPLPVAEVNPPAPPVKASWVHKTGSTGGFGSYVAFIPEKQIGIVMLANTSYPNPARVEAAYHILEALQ
T1 sequence (C7C422 29-270, looked up, species assumed): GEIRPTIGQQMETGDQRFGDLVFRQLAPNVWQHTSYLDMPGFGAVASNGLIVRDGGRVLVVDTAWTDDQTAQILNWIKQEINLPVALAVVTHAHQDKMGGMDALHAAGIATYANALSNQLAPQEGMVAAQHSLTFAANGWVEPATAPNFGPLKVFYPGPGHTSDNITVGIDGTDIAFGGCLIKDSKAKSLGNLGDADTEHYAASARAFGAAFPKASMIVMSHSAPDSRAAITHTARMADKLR
Sequence of purified class A, C and D enzymes (Escherichia coli, UniProt Q9L5C7) (Q9L5C7 entry or part of it): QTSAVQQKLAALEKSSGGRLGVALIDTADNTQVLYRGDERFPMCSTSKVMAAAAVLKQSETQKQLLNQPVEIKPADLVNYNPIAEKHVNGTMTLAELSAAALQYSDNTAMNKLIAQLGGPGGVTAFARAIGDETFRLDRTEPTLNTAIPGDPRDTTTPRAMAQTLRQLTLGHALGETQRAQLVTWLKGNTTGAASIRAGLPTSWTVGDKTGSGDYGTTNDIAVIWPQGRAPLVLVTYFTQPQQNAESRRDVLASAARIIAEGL

CCOc1ccc2c(c1C(=O)O)OB(O)[C@@H](Sc1nnc(N)s1)C2 [Compound 83, (3R)-3-[(5-amino-1,3,4-thiadiazol-2-yl)sulfanyl]-7-ethoxy-2-hydroxy-3,4-dihydro-1,2-benzoxaborinine-8-carboxylic acid]
Ki (NDM-1 [1]): < 0.01 µM
IC50 (VIM-1): < 1 µM
Ki (NDM-1 [2]): < 0.01 µM
Ki (P99/AmpC of ECL, NCF) [3]: Y (0.1 μM to 1 μM)
Ki (CTX-M-14, NCF) [4]: X (Less than 0.1 μM)
Ki [5]: < 0.1 µM
Ki [6]: < 0.1 µM
Ki [7]: 0.1 to 1 µM

Nc1nnc(S[C@H]2Cc3ccc(OC(F)F)c(C(=O)O)c3OB2O)s1 [Compound 84, (3R)-3-[(5-amino-1,3,4-thiadiazol-2-yl)sulfanyl]-7-(difluoromethoxy)-2-hydroxy-3,4-dihydro-1,2-benzoxaborinine-8-carboxylic acid]
Ki (NDM-1 [1]): 0.01 to 0.1 µM
IC50 (VIM-1): < 1 µM
Ki (NDM-1 [2]): 0.01 to 0.1 µM
Ki (P99/AmpC of ECL, NCF) [3]: Y (0.1 μM to 1 μM)
Ki (CTX-M-14, NCF) [4]: X (Less than 0.1 μM)
Ki [5]: < 0.1 µM
Ki [6]: < 0.1 µM
Ki [7]: 0.1 to 1 µM

CC(C)Oc1ccc2c(c1C(=O)O)OB(O)[C@@H](Sc1nncs1)C2 [Compound 85, (3R)-2-hydroxy-7-isopropoxy-3-(1,3,4-thiadiazol-2-ylsulfanyl)-3,4-dihydro-1,2-benzoxaborinine-8-carboxylic acid]
Ki (NDM-1 [1]): > 0.1 µM
IC50 (VIM-1): < 1 µM
Ki (NDM-1 [2]): > 0.1 µM
Ki (P99/AmpC of ECL, NCF) [3]: Y (0.1 μM to 1 μM)
Ki (CTX-M-14, NCF) [4]: X (Less than 0.1 μM)
Ki [5]: < 0.1 µM
Ki [6]: < 0.1 µM
Ki [7]: 0.1 to 1 µM

N#CCOc1ccc2c(c1C(=O)O)OB(O)[C@@H](Sc1nncs1)C2 [Compound 86, (3R)-7-(cyanomethoxy)-2-hydroxy-3-(1,3,4-thiadiazol-2-ylsulfanyl)-3,4-dihydro-1,2-benzoxaborinine-8-carboxylic acid]
Ki (NDM-1 [1]): > 0.1 µM
IC50 (VIM-1): < 1 µM
Ki (NDM-1 [2]): > 0.1 µM
Ki (P99/AmpC of ECL, NCF) [3]: Z (Greater than 1 μM)
Ki (CTX-M-14, NCF) [4]: X (Less than 0.1 μM)
Ki [5]: < 0.1 µM
Ki [6]: < 0.1 µM
Ki [7]: 0.1 to 1 µM

O=C(O)c1c(OCCF)ccc2c1OB(O)[C@@H](Sc1nncs1)C2 [Compound 87, (3R)-7-(2-fluoroethoxy)-2-hydroxy-3-(1,3,4-thiadiazol-2-ylsulfanyl)-3,4-dihydro-1,2-benzoxaborinine-8-carboxylic acid]
Ki (NDM-1 [1]): > 0.1 µM
IC50 (VIM-1): < 1 µM
Ki (NDM-1 [2]): 0.01 to 0.1 µM
Ki (P99/AmpC of ECL, NCF) [3]: Y (0.1 μM to 1 μM)
Ki (CTX-M-14, NCF) [4]: X (Less than 0.1 μM)
Ki [5]: < 0.1 µM
Ki [6]: < 0.1 µM
Ki [7]: 0.1 to 1 µM

CC(C)COc1ccc2c(c1C(=O)O)OB(O)[C@@H](Sc1nncs1)C2 [Compound 88, (3R)-2-hydroxy-7-isobutoxy-3-(1,3,4-thiadiazol-2-ylsulfanyl)-3,4-dihydro-1,2-benzoxaborinine-8-carboxylic acid]
Ki (NDM-1 [1]): 0.01 to 0.1 µM
IC50 (VIM-1): < 1 µM
Ki (NDM-1 [2]): 0.01 to 0.1 µM
Ki (P99/AmpC of ECL, NCF) [3]: Y (0.1 μM to 1 μM)
Ki (CTX-M-14, NCF) [4]: X (Less than 0.1 μM)
Ki [5]: < 0.1 µM
Ki [6]: < 0.1 µM
Ki [7]: 0.1 to 1 µM

COCCOc1ccc2c(c1C(=O)O)OB(O)[C@@H](Sc1nncs1)C2 [Compound 89, (3R)-2-hydroxy-7-(2-methoxyethoxy)-3-(1,3,4-thiadiazol-2-ylsulfanyl)-3,4-dihydro-1,2-benzoxaborinine-8-carboxylic acid]
Ki (NDM-1 [1]): 0.01 to 0.1 µM
IC50 (VIM-1): < 1 µM
Ki (NDM-1 [2]): 0.01 to 0.1 µM
Ki (P99/AmpC of ECL, NCF) [3]: Z (Greater than 1 μM)
Ki (CTX-M-14, NCF) [4]: X (Less than 0.1 μM)
Ki [5]: < 0.1 µM
Ki [6]: < 0.1 µM
Ki [7]: 0.1 to 1 µM

Nc1nnc(S[C@H]2Cc3ccc(OCC(F)F)c(C(=O)O)c3OB2O)s1 [Compound 90, (3R)-3-[(5-amino-1,3,4-thiadiazol-2-yl)sulfanyl]-7-(2,2-difluoroethoxy)-2-hydroxy-3,4-dihydro-1,2-benzoxaborinine-8-carboxylic acid]
Ki (NDM-1 [1]): 0.01 to 0.1 µM
IC50 (VIM-1): < 1 µM
Ki (NDM-1 [2]): 0.01 to 0.1 µM
Ki (P99/AmpC of ECL, NCF) [3]: Z (Greater than 1 μM)
Ki (CTX-M-14, NCF) [4]: X (Less than 0.1 μM)
Ki [5]: < 0.1 µM
Ki [6]: < 0.1 µM
Ki [7]: < 0.1 µM

O=C(O)c1c(OCC(F)F)ccc2c1OB(O)[C@@H](Sc1nncs1)C2 [Compound 91, (3R)-7-(2,2-difluoroethoxy)-2-hydroxy-3-(1,3,4-thiadiazol-2-ylsulfanyl)-3,4-dihydro-1,2-benzoxaborinine-8-carboxylic acid]
Ki (NDM-1 [1]): 0.01 to 0.1 µM
IC50 (VIM-1): < 1 µM
Ki (NDM-1 [2]): 0.01 to 0.1 µM
Ki (P99/AmpC of ECL, NCF) [3]: Y (0.1 μM to 1 μM)
Ki (CTX-M-14, NCF) [4]: X (Less than 0.1 μM)
Ki [5]: < 0.1 µM
Ki [6]: < 0.1 µM
Ki [7]: 0.1 to 1 µM

COc1ccc2c(c1C(=O)O)OB(O)[C@@H](Sc1nnc(NC3CNC3)s1)C2 [Compound 96, (3R)-3-[[5-(azetidin-3-ylamino)-1,3,4-thiadiazol-2-yl]sulfanyl]-2-hydroxy-7-methoxy-3,4-dihydro-1,2-benzoxaborinine-8-carboxylic acid]
Ki (NDM-1 [1]): < 0.01 µM
IC50 (VIM-1): < 1 µM
Ki (NDM-1 [2]): < 0.01 µM
Ki (P99/AmpC of ECL, NCF) [3]: Y (0.1 μM to 1 μM)
Ki (CTX-M-14, NCF) [4]: X (Less than 0.1 μM)
Ki [5]: < 0.1 µM
Ki [6]: < 0.1 µM
Ki [7]: 0.1 to 1 µM

COc1ccc2c(c1C(=O)O)OB(O)[C@@H](Sc1nnc(NCCN3CCNCC3)s1)C2 [Compound 98, (3R)-2-hydroxy-7-methoxy-3-[[5-(2-piperazin-1-ylethylamino)-1,3,4-thiadiazol-2-yl]sulfanyl]-3,4-dihydro-1,2-benzoxaborinine-8-carboxylic acid]
Ki (NDM-1 [1]): 0.01 to 0.1 µM
IC50 (VIM-1): < 1 µM
Ki (NDM-1 [2]): 0.01 to 0.1 µM
Ki (P99/AmpC of ECL, NCF) [3]: Y (0.1 μM to 1 μM)
Ki (CTX-M-14, NCF) [4]: X (Less than 0.1 μM)
Ki [5]: < 0.1 µM
Ki [6]: < 0.1 µM
Ki [7]: 0.1 to 1 µM

O=C(O)c1cccc2c1OB(O)[C@@H](Sc1nnc(NC3CNC3)s1)C2 [Compound 99, (3R)-3-[[5-(azetidin-3-ylamino)-1,3,4-thiadiazol-2-yl]sulfanyl]-2-hydroxy-3,4-dihydro-1,2-benzoxaborinine-8-carboxylic acid]
Ki (NDM-1 [1]): < 0.01 µM
IC50 (VIM-1): < 1 µM
Ki (NDM-1 [2]): < 0.01 µM
Ki (P99/AmpC of ECL, NCF) [3]: X (Less than 0.1 μM)
Ki (CTX-M-14, NCF) [4]: X (Less than 0.1 μM)
Ki [5]: < 0.1 µM
Ki [6]: < 0.1 µM
Ki [7]: 0.1 to 1 µM

COc1ccc2c(c1C(=O)O)OB(O)[C@@H](Sc1nnc(NCCCN)s1)C2 [Compound 100, (3R)-3-[[5-(3-aminopropylamino)-1,3,4-thiadiazol-2-yl]sulfanyl]-2-hydroxy-7-methoxy-3,4-dihydro-1,2-benzoxaborinine-8-carboxylic acid]
Ki (NDM-1 [1]): < 0.01 µM
IC50 (VIM-1): < 1 µM
Ki (NDM-1 [2]): < 0.01 µM
Ki (P99/AmpC of ECL, NCF) [3]: X (Less than 0.1 μM)
Ki (CTX-M-14, NCF) [4]: X (Less than 0.1 μM)
Ki [5]: < 0.1 µM
Ki [6]: < 0.1 µM
Ki [7]: 0.1 to 1 µM

COc1ccc2c(c1C(=O)O)OB(O)[C@@H](Sc1nnc(N(CCN)CCN)s1)C2 [Compound 101, (3R)-3-[[5-[bis(2-aminoethyl)amino]-1,3,4-thiadiazol-2-yl]sulfanyl]-2-hydroxy-7-methoxy-3,4-dihydro-1,2-benzoxaborinine-8-carboxylic acid]
Ki (NDM-1 [1]): < 0.01 µM
IC50 (VIM-1): < 1 µM
Ki (NDM-1 [2]): < 0.01 µM
Ki (P99/AmpC of ECL, NCF) [3]: Z (Greater than 1 μM)
Ki (CTX-M-14, NCF) [4]: X (Less than 0.1 μM)
Ki [5]: < 0.1 µM
Ki [6]: < 0.1 µM
Ki [7]: 0.1 to 1 µM

COc1ccc2c(c1C(=O)O)OB(O)[C@@H](Sc1nnc(NC(CN)CN)s1)C2 [Compound 102, (3R)-3-[[5-[[2-amino-1-(aminomethyl)ethyl]amino]-1,3,4-thiadiazol-2-yl]sulfanyl]-2-hydroxy-7-methoxy-3,4-dihydro-1,2-benzoxaborinine-8-carboxylic acid]
Ki (NDM-1 [1]): < 0.01 µM
IC50 (VIM-1): < 1 µM
Ki (NDM-1 [2]): < 0.01 µM
Ki (P99/AmpC of ECL, NCF) [3]: Z (Greater than 1 μM)
Ki (CTX-M-14, NCF) [4]: X (Less than 0.1 μM)
Ki [5]: < 0.1 µM
Ki [6]: 0.1 to 1 µM
Ki [7]: > 1 µM

COc1ccc2c(c1C(=O)O)OB(O)[C@@H](Sc1nnc(N[C@H]3CCNC3)s1)C2 [Compound 103, (3R)-2-hydroxy-7-methoxy-3-[[5-[[(3S)-pyrrolidin-3-yl]amino]-1,3,4-thiadiazol-2-yl]sulfanyl]-3,4-dihydro-1,2-benzoxaborinine-8-carboxylic acid]
Ki (NDM-1 [1]): < 0.01 µM
IC50 (VIM-1): < 1 µM
Ki (NDM-1 [2]): < 0.01 µM
Ki (P99/AmpC of ECL, NCF) [3]: Y (0.1 μM to 1 μM)
Ki (CTX-M-14, NCF) [4]: X (Less than 0.1 μM)
Ki [5]: < 0.1 µM
Ki [6]: < 0.1 µM
Ki [7]: 0.1 to 1 µM
